A short description of this data set: xn = mol fraction of the nth substance listed. Particulars: 101 kPa; for viscosity: 298.1 K; for electrical conductivity: 298.15 K.

For the compound `CC[n+]1ccn(C)c1.N#C[N-]C#N` + CC[n+]1ccn(C)c1.F[B-](F)(F)F, the viscosity by setting is: (x2 = 0) 17.4 mPa·s; (x2 = 0.2164) 19.7 mPa·s; (x2 = 0.3218) 21.4 mPa·s; (x2 = 0.474) 23 mPa·s. Further, the electrical conductivity reads like this: (x2 = 0) 2.83 S/m; (x2 = 0.0448) 2.79 S/m; (x2 = 0.2164) 2.61 S/m; (x2 = 0.3218) 2.49 S/m; (x2 = 0.474) 2.3 S/m; (x2 = 0.6254) 2.1 S/m. In addition, the electrical conductivity was found to be 1.87 S/m (x2 = 0.7856) and 1.64 S/m (x2 = 0.9447).
As to `CC[n+]1ccn(C)c1.F[B-](F)(F)F` + CC[n+]1ccn(C)c1.N#C[N-]C#N, under “x1 = 1”, the viscosity is on record as 36.8 mPa·s and the electrical conductivity worked out at 1.55 S/m.

The viscosity is the resistance of a fluid to flow. Low readings indicate a thin fluid, high ones a thick fluid.

Values taken from a compilation of properties of binary mixtures (doi:10.1016/j.molliq.2009.05.001).
